We go through 1 compound from US20210244735A1, “COMPOSITIONS AND METHODS FOR TREATING MYELOFIBROSIS” (Impact Biomedicines, Inc., priority 2010, published 2021).

The nature of data set [1]: Drug substance blend compatibility with fillers and lubricants. The data set is classed as physicochemical. The conditions noted are these: blends with lactose, mannitol, MCC Avicel PH102, MCC ProSolv 90 HD; magnesium stearate, Pruv; 60° C./ambient humidity. Here is the method: A matrix of formulation blends was designed to study the compatibility of TG101348 di-HCl monohydrate with four fillers and two lubricants (Table 17). Blends were prepared at a scale of 2.5 g each by prescreening all components through a 500 μm sieve, blending all components except the lubricant using aTurbula T2B blender for 10 min at 22 rpm, screening the blend through a 500 μm sieve, blending for 10 min, adding lubricant (weight adjusted) and blending for 5 min The blends were manufactured and stored in 30 mL amber HDPE bottles under primary (60° C./ambient humidity) and backup conditions (40° C./75% RH, 25° C./60% RH, and 5° C.).

For another data set, the system named is human caco-2 cells. The data set can be described thus: caco-2 permeability. The data set is classed as in vitro ADME. The conditions noted are these: caco-2 permeability data. In general terms: Caco-2 cells form a polarised layer with tight junctions and transporters.

Where a name gives a salt, the structure may show the parent alone.

Regarding `Cc1cnc(Nc2ccc(OCCN3CCCC3)cc2)nc1Nc1cccc(S(=O)(=O)NC(C)(C)C)c1` [TG101348, N-tert-butyl-3-[(5-methyl-2-{[4-(2-pyrrolidin-1-ylethoxy)phenyl]amino}pyrimidin-4-yl)amino]benzenesulfonamide dihydrochloride monohydrate], in data set [1], the “compatibility with fillers and lubricants: changes in attributes (appearance, assay, impurities)” value was “no incompatibilities”. The permeability result in the data set with human caco-2 cells is “on the borderline between “low” and “high” permeability”.
